In patent publication EP0946545B1, “NOVEL CARBOXY SUBSTITUTED CYCLIC CARBOXAMIDE DERIVATIVES” (Aventis Pharmaceuticals Inc., priority 1996, dated 1998) one finds IC50 data, which are given here for 11 compounds.

One experiment concerns the target T1, NK1 receptor (Cavia porcellus, UniProt P30547).
T1 construct: evaluated in guinea pig lungs (Keystone Biologicals, Cleveland, OH); tissue Keystone Biologicals, Cleveland, OH; host or cells: guinea pig lung membranes
Nature of the experiment: Antagonism of iodinated tachykinin binding to NK1 receptors (Example A). The arrangement: species or system guinea pig. On the procedure:
(§1) One skilled in the art can determine the NK1 receptor and NK2 receptor affinity in vitro as follows. The NK1 receptor affinity of tachykinin antagonists is evaluated in guinea pig lungs (Keystone Biologicals, Cleveland, OH) and affinity for the NK2 receptor is evaluated in HSKR-1 cells (which are mouse 3T3 fibroblasts expressing the human jejunal NK2 receptor). Tissues or cells are homogenized with a Polytron in 15 volumes of 50 mM Tris-HC1 buffer (pH 7.4, 4°C) and centrifuged. The pellet is resuspended in Tris-HCl buffer and is centrifuged; the pellet is washed twice by resuspension. The final pellet is resuspended at a concentration of 40 mg/ml for tissues and 20 mg/ml for cells in incubation buffer and remains at room temperature for at least 15 min prior to use. Receptor binding is initiated by addition of 250 ul membrane preparation in duplicate to 0.1 nM of the following radioligands: ^125I-Bolton Hunter Lys-3 labeled substance P and ^125iodohistidyl-1-neurokinin A; in a final volume of 500 ul of buffer containing 50 mM Tris-HCl (pH 7.4 at room temperature), 0.1% bovine serum albumin, 2 mM mangenese chloride, 40 ug/ml bacitracin, 4 µg/ml leupeptin and chymostatin, 10 µM thiorphan and various doses of the putative tachykinin antagonists. Incubations are performed at room temperature for 90 min (NK1 receptor assays) or 2 hr (NK2 receptor assay); binding is terminated by addition of 50 mM Tris-HCl buffer (pH 7.4, 4°C) and filtration under vacuum through GF/B filters presoaked with 0.1% polyethyleneimine (NK1 receptor assays) or 0.5% bovine serum albumin (NK2 receptor assay). Filter bound radioactivity is quantitated in a gamma counter. Nonspecific binding is defined as binding in the presence of 1 µM substance P or neurokinin A. Specific binding is calculated by subtracting nonspecific binding from total binding. Competition of iodinated SP or NKA binding by test compounds or standards is expressed as a percentage of this maximum binding. IC50 values (concentration required to inhibit 50% of receptor binding) are generated for each of the test compounds by nonlinear regression using an iterative curve fitting program (GraphPAD Inplot, San Diego, CA).
(§2) Tackykinin receptor binding (IC50 values) for representative compounds of the present invention is found in Table 1. The values in Table 1 were determined by the method of present Example A and represent the mean of several experiments, except where noted. […]

The target of experiment [1] is T2, human jejunal NK2 receptor (Homo sapiens, UniProt P21452).
T2 construct: expressed in transfected cells; host or cells: HSKR-1 cells (mouse 3T3 fibroblasts)
T2 sequence (P21452 1-398): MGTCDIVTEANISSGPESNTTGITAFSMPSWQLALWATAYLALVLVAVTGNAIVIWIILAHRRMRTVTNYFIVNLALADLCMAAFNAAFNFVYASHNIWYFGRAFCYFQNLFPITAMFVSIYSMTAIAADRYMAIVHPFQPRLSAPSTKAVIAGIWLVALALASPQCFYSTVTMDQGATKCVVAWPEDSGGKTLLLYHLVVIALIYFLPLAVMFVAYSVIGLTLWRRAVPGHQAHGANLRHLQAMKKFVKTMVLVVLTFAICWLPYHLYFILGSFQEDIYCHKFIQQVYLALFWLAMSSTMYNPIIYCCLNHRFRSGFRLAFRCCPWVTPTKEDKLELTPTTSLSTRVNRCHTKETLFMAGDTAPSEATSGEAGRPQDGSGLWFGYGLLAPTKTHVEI
Nature of the experiment: Antagonism of iodinated tachykinin binding to NK2 receptors (Example A). On the procedure: as §1, §2

The mark [2] stands for this setting: read-out: Tachykinin Receptor Binding NK1 IC50, guinea pig lungs membranes, 0.1 nM 125I-Bolton Hunter Lys-3 labeled substance P, 90 min room temperature, mean of several experiments.
Setting [3] is: read-out: Tachykinin Receptor Binding NK2 IC50, HSKR-1 cells (mouse 3T3 fibroblasts expressing the human jejunal NK2 receptor), 0.1 nM 125iodohistidyl-1-neurokinin A, 2 hr room temperature, mean of several experiments.

Structures are written as SMILES. pIC50: −log10 of the molar value. Counter-ions that a name gives are not always drawn. Like-named read-outs stand apart in the source and are kept apart here.

T1 sequence (P30547 whole entry): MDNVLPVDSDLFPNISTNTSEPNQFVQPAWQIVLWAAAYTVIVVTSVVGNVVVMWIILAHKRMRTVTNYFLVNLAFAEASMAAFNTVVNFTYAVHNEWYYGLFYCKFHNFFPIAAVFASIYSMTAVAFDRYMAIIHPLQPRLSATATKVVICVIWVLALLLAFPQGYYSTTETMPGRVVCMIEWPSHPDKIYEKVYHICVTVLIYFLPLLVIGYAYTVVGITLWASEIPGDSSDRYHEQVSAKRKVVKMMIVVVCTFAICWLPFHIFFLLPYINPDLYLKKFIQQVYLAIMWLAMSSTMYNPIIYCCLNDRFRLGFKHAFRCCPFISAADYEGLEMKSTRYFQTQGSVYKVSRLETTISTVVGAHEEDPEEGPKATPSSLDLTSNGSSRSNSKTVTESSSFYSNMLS

`COc1cc(C(=O)N2CC[C@](CCN3CCC(C(=O)N4CCN(CCCC(=O)O)CC4)(c4ccccc4)CC3)(c3ccc(Cl)c(Cl)c3)C2)cc(OC)c1OC` [Example 30.2, (R)-1-(3,4,5-trimethoxybenzoyl)-3-(2-(4-phenyl-4-((4-carboxypropylpiperazin-1-yl)carboxamido)piperidine)ethyl)-3-(3,4-dichlorophenyl)pyrrolidine hydrochloric acid salt]: the results for the pIC50 (on NK1 receptor; in experiment [1]) were 8.47 and 8.44, respectively.

For `COc1cc(C(=O)N2CC[C@](CCN3CCC(C(=O)N4CCN(CC(=O)OCc5oc(=O)oc5C)CC4)(c4ccccc4)CC3)(c3ccc(Cl)c(Cl)c3)C2)cc(OC)c1OC` [Example 38.2, (R)-1-(3,4,5-Trimethoxybenzoyl)-3-(2-(4-phenyl-4-((4-carbo(5-methyl-2-oxo-1,3-dioxol-4-yimethoxy)methylpiperazin-1-yl)carboxamido)piperidin-1-yl)ethyl)-3-(3,4-dichlorophenyl)pyrrolidine fumaric acid salt], the negative-log IC50 (pIC50) on NK1 receptor (setting [2]) is 8.11; in experiment [1] (setting [3]), 8.37.

For the compound `CCOC(=O)CN1CCN(C(=O)C2(c3cccnc3)CCN(CC[C@]3(c4ccc(Cl)c(Cl)c4)CCN(C(=O)c4cc(OC)c(OC)c(OC)c4)C3)CC2)CC1` [Example 5.5, (R)-1-(3,4,5-trimethoxybenzoyl)-3-(2-(4-(pyrid-3-yl)-4-((4-carboethoxymethylpiperazin-1-yl)carboxamido)piperidin-1-yl)ethyl)-3-(3,4-dichlorophenyl)pyrrolidine hydrochloric acid salt], the negative-log IC50 (pIC50) at NK1 receptor is 8.20; in experiment [1] it was 8.60.

Consider `CCOC(=O)CCN1CCN(C(=O)C2(c3ccccc3)CCN(CC[C@]3(c4ccc(Cl)c(Cl)c4)CCN(C(=O)c4cc(OC)c(OC)c(OC)c4)C3)CC2)CC1` [Example 27.3, (R)-1-(3,4,5-trimethoxvbenzoyl)-3-(2-(4-phenyl-4-((4-carboethoxyethylpiperazin-1-yl)carboxamido)piperidine)ethyl)-3-(3,4-dichlorophenyl)pyrrolidine hydrochloric acid salt], for which the pIC50 at NK1 receptor was 8.04; in experiment [1], 8.63.

Turning to `COc1cc(C(=O)N2CC[C@](CCN3CCC(C(=O)N4CCN(CC(=O)OCC(=O)N(C)CCN(C)C)CC4)(c4ccccc4)CC3)(c3ccc(Cl)c(Cl)c3)C2)cc(OC)c1OC` [Example 37.2, (R)-1-(3,4,5-Trimethoxybenzoyl)-3-(2-(4-phenyl-4-((4-carbo(N-methyl-N-(2-dimethylaminoethyl))carboxamidomethoxy)methylpiperazin-1-yl)carboxamido)piperidin-1-yl)ethyl)-3-(3,4-dichlorophenyl)pyrrolidine fumaric acid salt], the negative logarithm of the IC50 (pIC50) at NK1 receptor (setting [2]) is 8.68; in experiment [1] (setting [3]), 9.05.

In the case of `CCOC(=O)CCCN1CCN(C(=O)C2(c3ccccc3)CCN(CC[C@]3(c4ccc(Cl)c(Cl)c4)CCN(C(=O)c4cc(OC)c(OC)c(OC)c4)C3)CC2)CC1` [Example 29.2, (R)-1-(3,4,5-trimethoxybenzoyl)-3-(2-(4-phenyl-4-((4-carboethoxypropylpiperazin-1-yl)carboxamido)piperidine)ethyl)-3-(3,4-dichlorophenyl)pyrrolidine fumaric acid salt], the pIC50 on NK1 receptor is 7.92; in experiment [1], 8.49.

As for `CCN(CC)C(=O)COC(=O)CN1CCN(C(=O)C2(c3ccccc3)CCN(CC[C@]3(c4ccc(Cl)c(Cl)c4)CCN(C(=O)c4cc(OC)c(OC)c(OC)c4)C3)CC2)CC1` [Example 33.2, (R)-1-(3,4,5-trimethoxybenzoyl)-3-(2-(4-phenyl-4-((4-carbo(N,N-diethylcarboxamidomethoxy)methylpiperazin-1-yl)carboxamido)piperidine)ethyl)-3-(3,4-dichlorophenyl)pyrrolidine fumaric acid salt], the pIC50 on NK1 receptor (setting [2]) is 8.40; in experiment [1] (setting [3]), 8.61.

For the compound `CCOC(=O)C1CN(C(=O)C2(c3ccccc3)CCN(CC[C@]3(c4ccc(Cl)c(Cl)c4)CCN(C(=O)c4cc(OC)c(OC)c(OC)c4)C3)CC2)CCO1` (stereo partly drawn) [Example 25.2, (R)-1-(3,4,5-trimethoxybenzoyl)-3-(2-(4-phenyl-4-((2-carboethoxymorpholin-4-yl)carboxamido)piperidin-1-yl)ethyl)-3-(3,4-dichlorophenyl)pyrrolidine fumaric acid salt], the negative-log IC50 (pIC50) was 7.84 at NK1 receptor and 8.19 in experiment [1].

Regarding `COc1cc(C(=O)N2CC[C@](CCN3CCC(C(=O)N4CCN(CCC(=O)O)CC4)(c4ccccc4)CC3)(c3ccc(Cl)c(Cl)c3)C2)cc(OC)c1OC` [Example 28.2, (R)-1-(3,4,5-trimethoxybenzoyl)-3-(2-(4-phenyl-4-((4-carboxyethylpiperazin-1-yl)carboxamido)piperidine)ethyl)-3-(3,4-dichlorophenyl)pyrrolidine hydrochloric acid salt], the pIC50 at NK1 receptor is 7.71; in experiment [1], 8.43.

`CCCC(=O)OCOC(=O)CN1CCN(C(=O)C2(c3ccccc3)CCN(CC[C@]3(c4ccc(Cl)c(Cl)c4)CCN(C(=O)c4cc(OC)c(OC)c(OC)c4)C3)CC2)CC1` [Example 35.2, (R)-1-(3,4,5-trimethoxybenzoyl)-3-(2-(4-phenyl-4-((4-carbo(propylcarbonyloxymethoxy)methylpiperazin-1 yl)carboxamido)piperidine)ethyl)-3-(3,4-dichlorophenyl)pyrrolidine fumaric acid salt]: the pIC50 at NK1 receptor (setting [2]) is 7.83; in experiment [1] (setting [3]) it was 7.93.

For the compound `CCOC(=O)CN1CCN(C(=O)C2(c3ccccc3)CCN(CCC3(c4ccc(F)c(F)c4)CCN(C(=O)c4cc(OC)c(OC)c(OC)c4)C3)CC2)CC1` (stereo not shown) [Example 23.8, 1-(3,4,5-trimethoxvbenzoyl)-3-(2-(4-phenyl-4-((4-carboethoxymethylpiperazin-1-yl)carboxamido)piperidin-1-yl)ethyl)-3-(3,4-difluorophenyl)pyrrolidine hydrochloric acid salt], the negative logarithm of the IC50 (pIC50) is 8.08 at NK1 receptor and 7.93 in experiment [1].

The term pIC50 denotes the IC50 on a negative log10 scale, so that one unit is a factor of ten.
